The subject of one series is Rattus norvegicus. Put plainly: Toxicity in iv dosed rat assessed as maximum tolerated dose. Type of series: organism-based. To be noted: in vivo.
The test system of another series is Canis familiaris. Put plainly: Toxicity in iv dosed dog assessed as maximum tolerated dose. The conditions noted are these: in vivo. It is filed as organism-based, Canis lupus familiaris.
Series [1] can be described thus: Chemical stability assessed as half life. Type of series: physicochemical.
Series [2] is described as follows: animal or person. To be noted: Homo sapiens, CWR22, po, read-out: TGI.
Description: Antitumor activity against human CWR22 cells xenografted in BALB/c mouse at 120 mg/kg, po administered in QDx5 schedule
For another series, the system named is PANC-1. Briefly: animal or person. To be noted: Mus musculus, PANC-1, po, read-out: TGI.
In a further series the test system is BT-474. Briefly: animal or person. The conditions noted are these: Mus musculus, BT-474, po, read-out: TGI.
Series [3] can be described thus: AUC in mouse at 100 mg/kg, po. The conditions noted are these: plasma. Type of series: ADME, organism-based. Also on record: dose 100 mg/kg, route oral.
Another series concerns Mus musculus. Briefly: Toxicity in BALB/c mouse assessed as body weight loss at 125 mg/kg, po administered in QDx5 schedule. It is filed as organism-based. Set-up: dose 125 mg/kg, route oral. To be noted: in vivo.
A further series deals with SK-OV-3. Briefly: animal or person. The conditions noted are these: Mus musculus, SK-OV-3, po, read-out: TGI.
The next series relates to NCI-N87. Put plainly: animal or person. To be noted: Mus musculus, NCI-N87, po, read-out: TGI.
Series [4] is described as follows: animal or person. The conditions noted are these: Homo sapiens, U-87 MG, po, read-out: TGI.
Description: Antitumor activity against human U87 cells xenografted in BALB/c mouse at 75 mg/kg, po administered in BIDx5 schedule
Series [5] can be described thus: Tmax in mouse at 100 mg/kg, po. It is filed as ADME, organism-based. Also on record: dose 100 mg/kg, route oral. The conditions noted are these: in vivo.
Series [6] can be described thus: Half life in mouse at 100 mg/kg, po. The conditions noted are these: in vivo. Set-up: dose 100 mg/kg, route oral. Type of series: ADME, organism-based.
Series [7] is described as follows: Cmax in mouse at 100 mg/kg, po. It is filed as ADME, organism-based. Also on record: dose 100 mg/kg, route oral. To be noted: in vivo.

Description for BT-474: Antitumor activity against human BT474 cells xenografted in BALB/c mouse at 120 mg/kg, po administered in QDx5 schedule
Description for NCI-N87: Antitumor activity against human NCI-N87 cells xenografted in BALB/c mouse at 125 mg/kg, po administered in QDx5 schedule
Description for PANC-1: Antitumor activity against human PANC1 cells xenografted in BALB/c mouse at 124 mg/kg, po administered in QDx5 schedule
Description for SK-OV-3: Antitumor activity against human SKOV3 cells xenografted in BALB/c mouse at 124 mg/kg, po administered in QDx5 schedule

The term half-life denotes the time in which the quantity being followed falls by half. As for `CO[C@H]1/C=C\C=C(/C)C(=O)NC2=CC(=O)C(NCCN(C)C)=C(C[C@@H](C)C[C@H](OC)[C@H](O)[C@@H](C)/C=C(\C)[C@@H]1OC(N)=O)C2=O` [ALVESPIMYCIN], the MTD in the series with Rattus norvegicus amounted to 12 mg/m2; in the series with Canis familiaris it was 8 mg/m2. For the same compound, in series [1], the half-life came out at 26 min.
The AUC is concentration integrated over time. A lower AUC goes with less exposure. Broadly, the Tmax is the time from dosing to the highest level. What is called Cmax is the maximum level reached in the sampled fluid or tissue. In the case of `COc1c(C)cnc(Cn2cnc3c(Cl)nc(N)nc32)c1C` [BIIB021], the results for the inhibition in vivo at 120 mg/kg in “animal or person [2]” and in the series on BT-474 were 85% and 94%, respectively. Moreover, the values for the inhibition in vivo at 124 mg/kg with PANC-1 and in the series with SK-OV-3 were 51% and 67%, respectively. Besides, the AUC in series [3] was 15 µM·h. Also, the Activity in the series with Mus musculus worked out at 3%. Also, the inhibition in vivo at 125 mg/kg with NCI-N87 was determined as 87%. Besides, the inhibition in vivo at 75 mg/kg in the series “animal or person [4]” was found to be 70%. In addition, the Tmax in series [5] worked out at 6 min. Moreover, the half-life in series [6] was 48 min. This compound also returned a Cmax in series [7] of 31 µM.
